Values of other authors as cited in US7481758B2, “Pharmaceutically enhanced low-energy radiosurgery” (Sirius Medicine, LLC, priority 1997, dated 2009).

Tests used:
brain tumors = settings: low-energy x-rays and iodine, brain tumors in rabbits
lymphocytes = settings: in lymphocytes; low-energy photons

## II [iodine]
Brain tumors
  dose enhancement: about 30%
lymphocytes
  dose enhancement: up to 3
